Patent US11866433B2, “Diarylthiohydantoin compound as androgen receptor antagonist” (CHIA TAI TIANQING PHARMACEUTICAL GROUP CO., LTD., priority 2017, dated 2024)

Columns and labels:
Assay type in all cases: in vivo
[1] = Tissue distribution test of Compound 35 and Compound 58 (plasma and brain); details: intragastric 2 mg/kg, 4 h after administration, male CD-1 mice; for Kp at 4 h / concentration at 4 h: mouse, oral; for Kp at 4 h: brain / plasma, read-out: Brain to Blood Ratio; for concentration at 4 h: plasma
Description: Taking male CD-1 mice as test animals, drug concentrations in plasma and brain after intragastric administration of Compound 35 and Compound 58 to the mice were determined by the LC/MS/MS method, respectively.
2.2 Test Animals: Two healthy adult male CD-1 mice. The animals were purchased from Shanghai Sippr-BK Laboratory Animal Co., Ltd.
An appropriate amount of sample was weighed, and added in a solution of 0.5% CMC+0.2% Tween in water. After stirring and ultrasonic processing, the resulting mixture reached a suspension state of 0.4 mg/mL.
Two male CD-1 mice were fasted overnight, and intragastrically administered at an administration volume of 5 mL/kg in a dose of 2 mg/kg.
(§1) After Compound 35 and Compound 58 were intragastrically administered to the male CD-1 mice, 100 μL of blood was collected by cardiac puncture at 4 h, placed in a test tube containing 2 μl of EDTA-K2, and centrifuged at 3000 g for 15 min to separate 30 μL of plasma, which was stored at −60° C. Meanwhile, brain tissues were collected, washed, then homogenized with 9-fold 15 mM PBS/MeOH (v:v, 2:1), and stored at −60° C. The animals were allowed to eat 4 hours after administration.
(§2) After intragastric administration to the mice, the content of the test compound in plasma and brain was determined by the LC/MS/MS method. The linear range of the method was 2.00-6000 nmol/L; and the plasma samples were analyzed after the treatment with acetonitrile precipitated protein.

[2] = Pharmacokinetic test of Compound 35 and Compound 58 in mice (intravenous and intragastric); details: mouse, plasma, male CD-1 mice; for AUC(0-t): read-out: Curve Area (0-t) AUC0-last; for Cmax: read-out: Plasma Concentration Cmax; for Tmax: read-out: Time to Peak Tmax; for Vd: read-out: Apparent Volume of Distribution Vdss; for clearance: read-out: Clearance Rate CI; for AUC(0-inf): read-out: Curve Area (0-inf) AUC0-inf; for half-life: read-out: Half Life T1/2 (converted)
Description: With reference to Example 76, the pharmacokinetic behaviors of Compound 35 and Compound 58 in mice were investigated and their pharmacokinetic profiles were evaluated.
2. Experimental Protocol Refers to Example 76.
(§3) After Compound 35 and Compound 58 were intravenously administered to the male CD-1 mice, 30 μL of blood was cross-collected at 0.0833, 0.25, 0.5, 1, 2, 4, 8, 24, and 48 h respectively, and placed in test tubes containing 2 μL of EDTA-K2. After Compound 35 and Compound 58 were administered to the intragastric administration group, 30 μL of blood was cross-collected at 0.25, 0.5, 1, 2, 4, 8, 24, and 48 h respectively, and placed in test tubes containing 2 μL of EDTA-K2. The test tubes was centrifuged at 3000 g for 15 min to separate the plasma, which was stored at −60° C. The animals were allowed to eat 4 hours after administration.
(§4) After intravenous and intragastric administration to the mice, the content of the test compound in plasma was determined by the LC/MS/MS method. The linear range of the method was 2.00-6000 nmol/L; and the plasma samples were analyzed after the treatment with acetonitrile precipitated protein.

[3] = Tissue distribution test of Compound 27 and Compound 10 (plasma and brain); details: intragastric 2 mg/kg, 2 h after administration, male CD-1 mice
Description: Taking male CD-1 mice as test animals, drug concentrations in plasma and brain after intragastric administration of Compound 27 and Compound 10 to the mice were determined by the LC/MS/MS method, respectively.
2.2 Test Animals: Six healthy adult male CD-1 mice were divided into 2 groups, with 3 mice in each group, according to the principle of similar body weight. The animals were purchased from Shanghai Super-BK Laboratory Animal Co., Ltd., with Animal Production License No.: SCXK (Shanghai) 2013-0016.
(§5) An appropriate amount of sample was weighed, and an appropriate amount of DMSO, PEG400 and water were added successively at a volume ratio of 10:40:50. After stirring and ultrasonic processing, the resulting mixture reached a clear solution state of 0.4 mg/mL.
Six male CD-1 mice were divided into 2 groups, fasted overnight, and intragastrically administered at an administration volume of 5 mL/kg in a dose of 2 mg/kg.
as §1, with “Compound 27” for “Compound 35”, “Compound 10” for “Compound 58”, “at 2” for “at 4”, “separate 50” for “separate 30”, “with 5-fold” for “with 9-fold”, “eat 2” for “eat 4”
as §2

[4] = Pharmacokinetic test of Compound 10 in mice (intravenous and intragastric); details: mouse, plasma, male CD-1 mice; for AUC(0-inf): read-out: Curve Area (0-inf) AUC0-inf; for AUC(0-t): read-out: Curve Area (0-t) AUC0-last; for half-life: read-out: Half Life T1/2 (converted)
Description: Taking male CD-1 mice as test animals, drug concentrations in plasma at different moments after intravenous and intragastric administration of Compound 10 to the mice were determined by the LC/MS/MS method. The pharmacokinetic behavior of Compound 10 in mice was investigated and its pharmacokinetic profile was evaluated.
2.2 Test Animals: Four healthy adult male CD-1 mice were divided into 2 groups, with 2 mice in each group, according to the principle of similar body weight. The animals were purchased from Shanghai Super-BK Laboratory Animal Co., Ltd., with Animal Production License No.: SCXK (Shanghai) 2013-0016.
as §5, with “2.3 Drug Preparation An” for “An”, “mg/mL for intravenous administration.” for “mg/mL.”
An appropriate amount of sample was weighed, and dissolved in a solution of 0.5% CMC+0.2% Tween 80. After stirring and ultrasonic processing, the resulting mixture reached a uniform suspension state of 0.4 mg/mL for intragastric administration.
Four male CD-1 mice were divided into 2 groups, and fasted overnight. The first group was intravenously administered at an administration volume of 2.5 mL/kg in a dose of 1 mg/kg; and the second group was intragastrically administered at an administration volume of 5 mL/kg in a dose of 2 mg/kg.
as §3, with “Compound 10 was” for “Compound 35 and Compound 58 were”, “was collected” for “was cross-collected”, “8,” for “8, 24,”, “and 24” for “and 48”, “tubes were” for “tubes was”, “eat 2” for “eat 4”
as §4

[5] = po, intragastric administration, 2 mg/kg
[6] = intravenous administration, 1 mg/kg

In the case of CCc1cc(=O)n2cc(N3C(=S)N(c4ccc(C#N)c(Cl)c4)C(=O)C3(C)C)cc(F)c2n1 [Compound 58], the “Concentration in Brain” value [1] is reported as 265 nmol/kg, the Kp at 4 h [1] is reported as 0.0322 and the concentration at 4 h [1] is reported as 8.26 µM. The AUC(0-t) [2, 5] was 370 µM·h, the Cmax [2, 5] was 12.8 µM and the Tmax [2, 5] was 8 h. The Vd [2, 6] was 0.248 L/kg, the clearance [2, 6] was 0.0794 mL/min/kg and the AUC(0-inf) [2, 6] was 447 µM·h. For the same molecule, the AUC(0-t) [2, 6] was 271 µM·h and the half-life [2, 6] was 36.6 h.
In the case of CCc1nc(OCCO)c2cc(N3C(=S)N(c4ccc(C#N)c(C(F)(F)F)c4)C(=O)C3(C)C)cc(F)c2n1 [Compound 10], the “Concentration in Brain” value [3] is reported as 67.38 ± 44.5 nmol/kg, the Kp at 2 h ([3]; mouse, brain / plasma, oral, read-out: Brain to Blood Ratio) is reported as 0.0133 ± 0.0006 and the concentration at 2 h ([3]; mouse, plasma, oral) is reported as 5 ± 3.16 µM. The bioavailability [4, 5] was 41.7%, the AUC(0-inf) [4, 5] was 27.9 µM·h and the AUC(0-t) [4, 5] was 26.3 µM·h. It also gave a half-life [4, 5] of 5.5 h, a Cmax ([4]; po, intragastric administration, 2 mg/kg, read-out: Plasma Concentration Cmax) of 2.77 µM and a Tmax ([4]; po, intragastric administration, 2 mg/kg, read-out: Time to Peak Tmax) of 4 h. The Vd ([4]; intravenous administration, 1 mg/kg, read-out: Apparent Volume of Distribution Vdss) was 0.384 L/kg, the clearance ([4]; intravenous administration, 1 mg/kg, read-out: Clearance Rate CI) was 0.912 mL/min/kg and the AUC(0-inf) [4, 6] was 33.5 µM·h. It also gave an AUC(0-t) [4, 6] of 32.3 µM·h and a half-life [4, 6] of 4.88 h.
In the case of CCc1cc(=O)n2cc(N3C(=S)N(c4ccc(C#N)c(C(F)(F)F)c4)C(=O)C3(C)C)cc(F)c2n1 [Compound 35], the “Concentration in Brain” value [1] is reported as 281 nmol/kg, the Kp at 4 h [1] is reported as 0.0742 and the concentration at 4 h [1] is reported as 4.12 µM. For the same molecule, the bioavailability [2, 5] was 94%, the AUC(0-t) [2, 5] was 110 µM·h and the Cmax [2, 5] was 5.78 µM. For the same molecule, the Tmax [2, 5] was 6 h, the Vd [2, 6] was 0.667 L/kg and the clearance [2, 6] was 0.189 mL/min/kg. For the same molecule, the AUC(0-inf) [2, 6] was 194 µM·h, the AUC(0-t) [2, 6] was 58.7 µM·h and the half-life [2, 6] was 45.1 h.
